Measurements published in patent US9718790B2, “Triazine derivative and pharmaceutical composition having an analgesic activity comprising the same” (SHIONOGI & CO., LTD., priority 2010, dated 2017).

Target: human P2X3 receptor (Homo sapiens (Human), UniProt P56373)
Assay: Evaluation of human P2X3 receptor inhibitory activity (Fluo-3 calcium fluorescence, FDSS 3000, ATP stimulation);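 note: stimulus was 50 nM ATP with fluorescence followed for 3 min, and the response per well was peak post-ATP fluorescence divided by the reading at measurement start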
Type: cell-based
Conditions: C6BU-1 cells stably expressing human P2X3 receptor, Fluo-3 fluorescence, FDSS 3000

Sequence of human P2X3 receptor (P56373 whole entry): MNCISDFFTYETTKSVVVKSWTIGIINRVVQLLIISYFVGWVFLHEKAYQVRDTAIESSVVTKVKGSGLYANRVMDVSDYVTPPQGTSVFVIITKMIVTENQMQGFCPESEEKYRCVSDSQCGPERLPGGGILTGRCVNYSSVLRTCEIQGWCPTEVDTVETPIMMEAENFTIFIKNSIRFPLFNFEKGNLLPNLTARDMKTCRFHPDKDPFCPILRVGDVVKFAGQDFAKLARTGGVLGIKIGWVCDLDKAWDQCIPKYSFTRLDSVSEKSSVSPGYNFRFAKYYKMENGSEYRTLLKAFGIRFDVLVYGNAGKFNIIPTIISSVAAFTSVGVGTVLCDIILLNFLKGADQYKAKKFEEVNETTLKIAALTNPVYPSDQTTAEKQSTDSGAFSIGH

For `CC(C)n1c2c(c3cc(/N=c4\[nH]c(=O)n([C@@H](C)[C@@H](C)C(=O)O)c(=O)n4Cc4ccc(Cl)cc4)ccc31)CCCC2` [Compound I-1770], the IC50 was 788 nM.

In the case of `Cc1[nH]c2ccc(/N=c3\[nH]c(=O)n([C@@H](C)[C@@H](C)C(=O)O)c(=O)n3Cc3ccc(Cl)cc3)cc2c1C` [Compound I-1771], the IC50 is reported as 14 nM.

`CC(C)n1cnc2cc(/N=c3\[nH]c(=O)n([C@@H](C)[C@@H](C)C(=O)O)c(=O)n3Cc3ccc(Cl)cc3)ccc21` [Compound I-1772] was tested, and the IC50 was 297 nM.

For `COc1ccc2cc(/N=c3\[nH]c(=O)n([C@@H](C)[C@@H](C)C(=O)O)c(=O)n3Cc3ccc(Cl)cc3)ccc2c1` [Compound I-1773], the IC50 was 29 nM.

`C[C@@H](C(=O)O)[C@H](C)n1c(=O)[nH]/c(=N\c2ccc3c(c2)CCN3S(C)(=O)=O)n(Cc2ccc(Cl)cc2)c1=O` [Compound I-1774] showed an IC50 of 255 nM.

`C[C@@H](C(=O)O)[C@H](C)n1c(=O)[nH]/c(=N\c2ccc3c(c2)CC/C3=N\O)n(Cc2ccc(Cl)cc2)c1=O` [Compound I-1777] showed an IC50 of 636 nM.

`CC(C)N1C(=O)Cc2cc(/N=c3\[nH]c(=O)n([C@@H](C)[C@@H](C)C(=O)O)c(=O)n3Cc3ccc(Cl)cc3)ccc21` [Compound I-1779] gave an IC50 of 203 nM.

Compound `C[C@@H](C(=O)O)[C@H](C)n1c(=O)[nH]/c(=N\c2ccc3c(c2)sc(=O)n3CC(F)(F)F)n(Cc2ccc(Cl)cc2)c1=O` [Compound I-1780] has an IC50 of 932 nM.

Compound `C[C@@H](C(=O)O)[C@H](C)n1c(=O)[nH]/c(=N\c2ccc3[nH]ccc3c2)n(Cc2ccc(Cl)cc2)c1=O` [Compound I-1781] has an IC50 of 518 nM.

`C[C@@H](C(=O)O)[C@H](C)n1c(=O)[nH]/c(=N\c2ccc3c(c2)OC(F)(F)C(F)(F)O3)n(Cc2ccc(Cl)cc2)c1=O` [Compound I-1783] was tested, and the IC50 was 170 nM.

In the case of `C[C@@H](C(=O)O)[C@H](C)n1c(=O)[nH]/c(=N\c2ccc3c(c2)CCCC3=O)n(Cc2ccc(Cl)cc2)c1=O` [Compound I-1784], the IC50 is reported as 950 nM.

In the case of `C[C@@H](C(=O)O)[C@H](C)n1c(=O)[nH]/c(=N\c2ccc3c(c2)OCC(=O)N3)n(Cc2ccc(Cl)cc2)c1=O` [Compound I-1786], the IC50 is reported as 621 nM.

Compound `O=c1[nH]/c(=N\c2ccc(Oc3ccc(O)nc3)cc2)n(Cc2ccc(Cl)cc2)c(=O)n1CCO` [Compound I-1789] has an IC50 of 30 nM.

`CCCc1nc2ccc(/N=c3\[nH]c(=O)n([C@@H](C)[C@@H](C)C(=O)O)c(=O)n3Cc3ccc(Cl)cc3)cc2s1` [Compound I-1792] was tested, and the IC50 was 20 nM.

For `CC(=O)Nc1nc2ccc(/N=c3\[nH]c(=O)n([C@@H](C)[C@@H](C)C(=O)O)c(=O)n3Cc3ccc(Cl)cc3)cc2s1` [Compound I-1793], the IC50 was 984 nM.

`C[C@@H](C(=O)O)[C@H](C)n1c(=O)[nH]/c(=N\c2ccc3nc(C(F)(F)F)[nH]c3c2)n(Cc2ccc(Cl)cc2)c1=O` [Compound I-1794] gave an IC50 of 380 nM.

Work on `COC(=O)[C@H](C)[C@H](C)n1c(=O)[nH]/c(=N\c2ccc3nc(C)[nH]c3c2)n(Cc2ccc(Cl)cc2)c1=O` [Compound I-1795] yielded an IC50 of 795 nM.

`C[C@@H](C(=O)O)[C@H](C)n1c(=O)[nH]/c(=N\c2ccc3c(c2)CCCC3)n(Cc2ccc(Cl)cc2)c1=O` [Compound I-1796] was tested, and the IC50 was 587 nM.

Work on `O=C(O)c1cc(Oc2ccc(/N=c3\[nH]c(=O)n(CCO)c(=O)n3Cc3ccc(Cl)cc3)cc2)ccn1` [Compound I-1797] yielded an IC50 of 6 nM.

With `CCc1nc2ccc(/N=c3\[nH]c(=O)n(CC(=O)O)c(=O)n3Cc3ccc(Cl)cc3)cc2s1` [Compound I-1798] the IC50 was 150 nM.

For `COc1ccc(Oc2ccc(/N=c3\[nH]c(=O)n(CC(=O)O)c(=O)n3Cc3ccc(Cl)cc3)cc2)cn1` [Compound I-1799], the IC50 was 382 nM.

With `Cc1cc(Oc2ccc(/N=c3\[nH]c(=O)n(CC(=O)O)c(=O)n3Cc3ccc(Cl)cc3)cc2)ccn1` [Compound I-1800] the IC50 was 510 nM.

`COC(=O)CCn1c(=O)[nH]/c(=N\Nc2ccc(OC)cc2)n(Cc2ccc(C)cc2)c1=O` [Compound I-1801] gave an IC50 of 687 nM.

With `COC(=O)CCn1c(=O)[nH]/c(=N\c2cn(C)nc2C(=O)NC(C)C)n(Cc2ccc(C)cc2)c1=O` [Compound I-1804] the IC50 was 162 nM.

`CCc1nc2ccc(/N=c3\[nH]c(=O)n(CC(N)=O)c(=O)n3Cc3ccc(Cl)cc3)cc2s1` [Compound I-1805] was tested, and the IC50 was 5 nM.

In the case of `CCc1nc2ccc(/N=c3\[nH]c(=O)n(CC(=O)NC)c(=O)n3Cc3ccc(Cl)cc3)cc2s1` [Compound I-1807], the IC50 is reported as 6 nM.

`CCc1nc2ccc(/N=c3\[nH]c(=O)n(CC(=O)NCCO)c(=O)n3Cc3ccc(Cl)cc3)cc2s1` [Compound I-1808] showed an IC50 of 4 nM.

`CC(C)Oc1ccc(/N=c2\[nH]c(=O)n(CCC(=O)O)c(=O)n2CC2(C)CCCCC2)cc1F` [Compound I-1809] showed an IC50 of 339 nM.

`C[C@@H](C(=O)O)[C@H](C)n1c(=O)[nH]/c(=N\c2ccc3c(c2)CCOC3)n(Cc2ccc(Cl)cc2)c1=O` [Compound I-1810] showed an IC50 of 682 nM.

`C[C@@H](C(=O)O)[C@H](C)n1c(=O)[nH]/c(=N\c2ccc3c(c2)nc(-c2ccccc2)n3C)n(Cc2ccc(Cl)cc2)c1=O` [Compound I-1812] showed an IC50 of 630 nM.

`C[C@@H](C(=O)O)[C@H](C)n1c(=O)[nH]/c(=N\c2ccc3oc(-c4ccccc4)nc3c2)n(Cc2ccc(Cl)cc2)c1=O` [Compound I-1814] was tested, and the IC50 was 299 nM.

In the case of `CCn1c2ccccc2c2cc(/N=c3\[nH]c(=O)n([C@@H](C)[C@@H](C)C(=O)O)c(=O)n3Cc3ccc(Cl)cc3)ccc21` [Compound I-1815], the IC50 is reported as 367 nM.

With `C[C@@H](C(=O)O)[C@H](C)n1c(=O)[nH]/c(=N\c2ccc3oc(-c4ccncc4)nc3c2)n(Cc2ccc(Cl)cc2)c1=O` [Compound I-1816] the IC50 was 300 nM.

`CCCc1cc2cc(/N=c3\[nH]c(=O)n([C@@H](C)[C@@H](C)C(=O)OC)c(=O)n3Cc3ccc(Cl)cc3)ccc2o1` [Compound I-1817] showed an IC50 of 52 nM.

Work on `C[C@@H](C(=O)O)[C@H](C)n1c(=O)[nH]/c(=N\c2ccc3[nH]c(=O)[nH]c(=O)c3c2)n(Cc2ccc(Cl)cc2)c1=O` [Compound I-1818] yielded an IC50 of 829 nM.

Work on `C[C@@H](C(=O)O)[C@H](C)n1c(=O)[nH]/c(=N\c2ccc3c(c2)CCC(=O)N3)n(Cc2ccc(Cl)cc2)c1=O` [Compound I-1819] yielded an IC50 of 873 nM.

In the case of `C[C@@H](C(=O)O)[C@H](C)n1c(=O)[nH]/c(=N\c2ccc3c(c2)CCCO3)n(Cc2ccc(Cl)cc2)c1=O` [Compound I-1820], the IC50 is reported as 204 nM.

With `C[C@@H](C(=O)O)[C@H](C)n1c(=O)[nH]/c(=N\c2ccc3c(c2)OC(F)(F)O3)n(Cc2ccc(Cl)cc2)c1=O` [Compound I-1821] the IC50 was 429 nM.

`C[C@@H](C(=O)O)[C@H](C)n1c(=O)[nH]/c(=N\c2ccc3[nH]c(S)nc3c2)n(Cc2ccc(Cl)cc2)c1=O` [Compound I-1822] was tested, and the IC50 was 332 nM.

`C[C@@H](C(=O)O)[C@H](C)n1c(=O)[nH]/c(=N\c2ccc3c(O)cccc3c2)n(Cc2ccc(Cl)cc2)c1=O` [Compound I-1826] was tested, and the IC50 was 751 nM.

In the case of `COC(=O)[C@H](C)[C@H](C)n1c(=O)[nH]/c(=N\c2ccc3oc4ccccc4c3c2)n(Cc2ccc(Cl)cc2)c1=O` [Compound I-1827], the IC50 is reported as 913 nM.

For `C[C@@H](C(=O)O)[C@H](C)n1c(=O)[nH]/c(=N\c2ccc3nc(-c4ccccc4)sc3c2)n(Cc2ccc(Cl)cc2)c1=O` [Compound I-1829], the IC50 was 92 nM.

`C[C@@H](C(=O)O)[C@H](C)n1c(=O)[nH]/c(=N\c2ccc3c(c2)CCC3=O)n(Cc2ccc(Cl)cc2)c1=O` [Compound I-1830] showed an IC50 of 869 nM.

In the case of `C[C@@H](C(=O)O)[C@H](C)n1c(=O)[nH]/c(=N\c2ccc3c(c2)C(=O)CC3)n(Cc2ccc(Cl)cc2)c1=O` [Compound I-1831], the IC50 is reported as 739 nM.
